Consider seven molecules from US10081662B2, “Modified relaxin B chain peptides” (The Florey Institute of Neuroscience and Mental Health, priority 2014, dated 2018).

The target of assay [1] is T1, RXFP1 (Homo sapiens, UniProt Q9HBX9).
T1 construct: expressed in transfected cells; host or cells: HEK-293T
T1 sequence (Q9HBX9 1-757): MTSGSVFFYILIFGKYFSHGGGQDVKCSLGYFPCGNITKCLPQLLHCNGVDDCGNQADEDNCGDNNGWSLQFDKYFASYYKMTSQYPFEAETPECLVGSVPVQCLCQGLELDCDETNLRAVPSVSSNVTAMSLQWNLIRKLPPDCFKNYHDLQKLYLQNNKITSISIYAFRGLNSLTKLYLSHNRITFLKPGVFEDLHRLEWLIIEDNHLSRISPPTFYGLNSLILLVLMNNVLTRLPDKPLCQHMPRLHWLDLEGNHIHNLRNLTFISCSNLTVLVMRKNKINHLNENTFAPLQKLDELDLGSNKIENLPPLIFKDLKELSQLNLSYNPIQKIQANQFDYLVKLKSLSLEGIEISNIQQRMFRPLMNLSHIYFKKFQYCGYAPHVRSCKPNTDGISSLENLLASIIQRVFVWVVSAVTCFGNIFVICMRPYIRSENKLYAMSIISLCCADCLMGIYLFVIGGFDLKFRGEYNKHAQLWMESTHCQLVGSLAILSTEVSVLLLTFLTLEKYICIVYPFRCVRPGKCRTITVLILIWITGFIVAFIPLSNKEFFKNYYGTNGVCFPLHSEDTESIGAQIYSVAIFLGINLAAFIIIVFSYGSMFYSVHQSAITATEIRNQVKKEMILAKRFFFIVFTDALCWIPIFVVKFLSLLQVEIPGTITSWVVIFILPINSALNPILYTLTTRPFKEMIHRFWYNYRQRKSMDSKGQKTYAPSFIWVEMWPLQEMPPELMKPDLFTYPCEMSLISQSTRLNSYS
The assay can be described thus: Eu-labelled H2 relaxin competition binding, whole HEK-293T cells stably transfected with RXFP1. The following applies: HEK-293T cells stably transfected with RXFP1; competition with Eu-labelled H2 relaxin; mean ± S.E; n ≥ 3; read-out: RXFP1 Eu-H2 pKi (converted). The method, then:
Human embryonic kidney (HEK-293T) cells stably transfected with RXFP1 were cultured in RPMI 1640 medium supplemented with 10% fetal calf serum, 100 μg/ml penicillin, 100 μg/ml streptomycin and 2 mM L-glutamine and plated into 96-well pre-coated with poly-L-lysine for whole cell binding assays. Competition binding experiments were conducted with Eu^3+-labelled H2 relaxin (as per Shabanpoor et al., 2012, Biochem Biophys Res Commun. 420, 253-256) in the absence or presence of increasing concentrations of unlabelled relaxin-2 B chain derivatives. Nonspecific binding was determined with an excess of unlabelled peptides (500 nM H2 relaxin). Fluorescent measurements were recorded at an excitation wavelength of 340 nm and emission of 614 nm on a Victor plate reader (Perkin-Elmer Inc.). […] Statistical differences in pIC50 values were analyzed using one-way analysis of variance coupled to Newman Keul's multiple comparison test for multiple group comparisons in GraphPad Prism 6.

Assay [2] addresses T1, RXFP1. The assay is described as follows: cAMP reporter gene assay (pCRE β-galactosidase) in HEK-293T cells transfected with RXFP1. The note with it: HEK-293T cells co-transfected with RXFP1 and pCRE β-galactosidase reporter; n ≥ 3; read-out: RXFP1 cAMP pEC50 (converted). Type of assay: cell-based. The protocol:
The ability of the relaxin-2 B chain peptide derivatives generated in Example 1 to stimulate cAMP response was also evaluated, using a cAMP reporter gene assay as described previously (Scott et al., 2006, J Biol Chem. 281, 34942-34954). HEK-293T cells co-transfected with either RXFP1 or RXFP2, or 7BP cells, and a pCRE β-galactosidase reporter plasmid were plated in 96-well plates. After 24 hours, the co-transfected cells were incubated with increasing concentrations of peptides in parallel to 10 nM of H2 relaxin or INSL3 for RXFP1- or RXFP2-transfected cells respectively. The amount of cAMP-driven β-galactosidase expression in each well was assessed with a colorimetric assay measuring absorbance at 570 nm on a microplate spectrophotometer. Ligand-induced cAMP stimulation was expressed as a percentage of maximal response of H2 relaxin or INSL3 for RXFP1 and RXFP2 cells respectively. Each data point was measured in triplicate and each experiment conducted independently at least three separate times. Statistical differences in pEC50 values were analyzed using one-way ANOVA coupled to Newman Keul's multiple comparison test for multiple group comparisons in GraphPad Prism 6.
On the technique in general: A reporter such as luciferase makes a cellular process visible.

The target in assay [3] is T2, fusion protein comprising the extracellular domain of RXFP1 and the transmembrane domain of CD8 (7BP cells) (Homo sapiens, UniProt Q9HBX9).
T2 construct: the extracellular domain of RXFP1 and the transmembrane domain of CD8; expressed in transfected cells
T2 sequence (Q9HBX9 1-409 limits assumed): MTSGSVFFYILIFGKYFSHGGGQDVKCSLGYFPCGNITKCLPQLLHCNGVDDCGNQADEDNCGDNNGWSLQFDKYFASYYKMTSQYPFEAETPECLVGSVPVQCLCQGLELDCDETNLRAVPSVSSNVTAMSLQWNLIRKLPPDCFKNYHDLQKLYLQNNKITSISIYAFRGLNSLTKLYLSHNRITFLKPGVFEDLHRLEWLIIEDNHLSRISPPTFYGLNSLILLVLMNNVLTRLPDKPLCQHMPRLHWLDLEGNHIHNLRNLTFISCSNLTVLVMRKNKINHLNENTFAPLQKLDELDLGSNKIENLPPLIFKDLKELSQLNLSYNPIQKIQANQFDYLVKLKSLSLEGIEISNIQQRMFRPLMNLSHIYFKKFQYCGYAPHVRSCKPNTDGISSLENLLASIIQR
The assay is described as follows: Eu-labelled H2 relaxin competition binding to 7BP cells. The note with it: 7BP cells; lower affinity than H2 relaxin; FIG. 2B.

Square brackets hold non-standard residues; d marks the D form. Peptide text beside a SMILES is read from it. hArg = N=C(N)NCCCC[C@H](N)C(=O)O; Agb = N=C(N)NCC[C@H](N)C(=O)O Where only a bound is given, the exact number is not on record here.

Turning to `CC[C@H](C)[C@H](NC(=O)[C@H](C)NC(=O)[C@@H](NC(=O)[C@H](CCC(N)=O)NC(=O)[C@H](C)NC(=O)[C@H](CCCNC(=N)N)NC(=O)[C@@H](NC(=O)[C@H](CC(C)C)NC(=O)[C@H](CCC(=O)O)NC(=O)[C@H](CCCNC(=N)N)NC(=O)CNC(=O)[C@H](CO)NC(=O)[C@H](CC(C)C)NC(=O)[C@H](CCCCN)NC(=O)[C@@H](NC(=O)[C@@H](N)C(C)C)[C@@H](C)CC)C(C)C)[C@@H](C)CC)C(=O)N[C@@H](CO)C(=O)NCC(=O)N[C@@H](CCSC)C(=O)N[C@@H](CO)C(=O)N[C@H](C(=O)N[C@@H](Cc1c[nH]c2ccccc12)C(=O)N[C@@H](CO)C(N)=O)[C@@H](C)O` [B7-29 C11.23S] (H-VIKLSGRELVRAQIAISGMSTWS-NH2; N-terminus assumed), the Ki in assay [1] is above 10 µM. For the same molecule, the EC50 in assay [2] is above 10 µM.

Take `CC[C@H](C)[C@H](NC(=O)[C@H](C)NC(=O)[C@H](C)NC(=O)[C@H](CCC(N)=O)NC(=O)[C@H](C)NC(=O)[C@H](CCCNC(=N)N)NC(=O)[C@@H](NC(=O)[C@H](CC(C)C)NC(=O)[C@H](CCC(=O)O)NC(=O)[C@H](CCCNC(=N)N)NC(=O)CNC(=O)[C@H](CO)NC(=O)[C@H](CC(C)C)NC(=O)[C@H](CCCCN)NC(=O)[C@@H](NC(=O)[C@@H](NC(C)=O)C(C)C)[C@@H](C)CC)C(C)C)C(=O)N[C@@H](CO)C(=O)NCC(=O)N[C@@H](CCSC)C(=O)N[C@@H](CO)C(=O)N[C@H](C(=O)N[C@@H](Cc1c[nH]c2ccccc12)C(=O)N[C@@H](CO)C(=O)N[C@@H](CCCCN)C(=O)N[C@@H](CCCNC(=N)N)C(=O)N[C@@H](CO)C(=O)N[C@@H](CC(C)C)C(N)=O)[C@@H](C)O` [R20A (AcB7-33 C11.23S)] (Ac-VIKLSGRELVRAQAAISGMSTWSKRSL-NH2): the Ki in assay [1] was above 10 µM. Also, the EC50 in assay [2] is above 10 µM. In the case of `CC[C@H](C)[C@H](NC(=O)[C@H](C)NC(=O)[C@@H](NC(=O)[C@H](CCC(N)=O)NC(=O)[C@H](C)NC(=O)[C@H](CCNC(=N)N)NC(=O)[C@@H](NC(=O)[C@H](CC(C)C)NC(=O)[C@H](CCC(=O)O)NC(=O)[C@H](CCCNC(=N)N)NC(=O)CNC(=O)[C@H](CO)NC(=O)[C@H](CC(C)C)NC(=O)[C@H](CCCCN)NC(=O)[C@@H](NC(=O)[C@@H](N)C(C)C)[C@@H](C)CC)C(C)C)[C@@H](C)CC)C(=O)N[C@@H](CO)C(=O)NCC(=O)N[C@@H](CCSC)C(=O)N[C@@H](CO)C(=O)N[C@H](C(=O)N[C@@H](Cc1c[nH]c2ccccc12)C(=O)N[C@@H](CO)C(=O)N[C@@H](CCCCN)C(=O)N[C@@H](CCCNC(=N)N)C(=O)N[C@@H](CO)C(=O)N[C@@H](CC(C)C)C(N)=O)[C@@H](C)O` [B7-33 C11.23S R17NR] (H-VIKLSGRELV[Agb]AQIAISGMSTWSKRSL-NH2), the Ki in assay [1] is above 10 µM. The EC50 in assay [2] is 1.55 µM. Consider `CC[C@H](C)[C@H](NC(=O)[C@H](C)NC(=O)[C@@H](NC(=O)[C@H](CCC(N)=O)NC(=O)[C@H](C)NC(=O)[C@H](CCCCN)NC(=O)[C@@H](NC(=O)[C@H](CC(C)C)NC(=O)[C@H](CCC(=O)O)NC(=O)[C@H](CCCNC(=N)N)NC(=O)CNC(=O)[C@H](CO)NC(=O)[C@H](CC(C)C)NC(=O)[C@H](CCCCN)NC(=O)[C@@H](NC(=O)[C@@H](N)C(C)C)[C@@H](C)CC)C(C)C)[C@@H](C)CC)C(=O)N[C@@H](CO)C(=O)NCC(=O)N[C@@H](CCSC)C(=O)N[C@@H](CO)C(=O)N[C@H](C(=O)N[C@@H](Cc1c[nH]c2ccccc12)C(=O)N[C@@H](CO)C(=O)N[C@@H](CCCCN)C(=O)N[C@@H](CCCNC(=N)N)C(=O)N[C@@H](CO)C(=O)N[C@@H](CC(C)C)C(N)=O)[C@@H](C)O` [B7-33 C11.23S R17K] (H-VIKLSGRELVKAQIAISGMSTWSKRSL-NH2; N-terminus assumed), for which the Ki in assay [1] is above 10 µM. Besides, the EC50 in assay [2] was above 10 µM. As for `CC[C@H](C)[C@H](NC(=O)[C@H](C)NC(=O)[C@@H](NC(=O)[C@H](CCC(N)=O)NC(=O)[C@H](C)NC(=O)[C@H](CCCCNC(=N)N)NC(=O)[C@@H](NC(=O)[C@H](CC(C)C)NC(=O)[C@H](CCC(=O)O)NC(=O)[C@H](CCCNC(=N)N)NC(=O)CNC(=O)[C@H](CO)NC(=O)[C@H](CC(C)C)NC(=O)[C@H](CCCCN)NC(=O)[C@@H](NC(=O)[C@@H](N)C(C)C)[C@@H](C)CC)C(C)C)[C@@H](C)CC)C(=O)N[C@@H](CO)C(=O)NCC(=O)N[C@@H](CCSC)C(=O)N[C@@H](CO)C(=O)N[C@H](C(=O)N[C@@H](Cc1c[nH]c2ccccc12)C(=O)N[C@@H](CO)C(=O)N[C@@H](CCCCN)C(=O)N[C@@H](CCCNC(=N)N)C(=O)N[C@@H](CO)C(=O)N[C@@H](CC(C)C)C(N)=O)[C@@H](C)O` [B7-33 C11.23S R17HR] (H-VIKLSGRELV[hArg]AQIAISGMSTWSKRSL-NH2), the Ki in assay [1] was 0.302 µM. In assay [2], the EC50 is above 10 µM. For `CC[C@H](C)[C@H](NC(=O)[C@H](C)NC(=O)[C@@H](NC(=O)[C@H](CCC(N)=O)NC(=O)[C@H](C)NC(=O)[C@H](CCCNC(=N)N)NC(=O)[C@@H](NC(=O)[C@H](CC(C)C)NC(=O)[C@H](CCC(=O)O)NC(=O)[C@H](CCCNC(=N)N)NC(=O)CNC(=O)[C@H](CO)NC(=O)[C@H](CC(C)C)NC(=O)[C@H](CCCCN)NC(=O)[C@@H](NC(=O)[C@@H](NC(=O)[C@H](CCC(=O)O)NC(=O)[C@H](CCC(=O)O)NC(=O)[C@H](CCSC)NC(=O)[C@H](Cc1c[nH]c2ccccc12)NC(=O)[C@H](CO)NC(=O)[C@@H](N)CC(=O)O)C(C)C)[C@@H](C)CC)C(C)C)[C@@H](C)CC)C(=O)N[C@@H](CO)C(=O)NCC(=O)N[C@@H](CCSC)C(=O)N[C@@H](CO)C(=O)N[C@H](C(=O)N[C@@H](Cc1c[nH]c2ccccc12)C(=O)N[C@@H](CO)C(=O)N[C@@H](CCCCN)C(=O)N[C@@H](CCCNC(=N)N)C(=O)N[C@@H](CO)C(=O)N[C@@H](CC(C)C)C(N)=O)[C@@H](C)O` [B1-33 C11.23S] (H-DSWMEEVIKLSGRELVRAQIAISGMSTWSKRSL-NH2) the same measures were 4.68 µM and 7.94 µM. For the molecule “VIKLCGRELVRAQIAICGMSTWSKRSL-NH2 [Native B7-33]”, in assay [3], the “Binding to 7BP cells (in words)” value was “strongly bind to 7BP cells”.
